# According to the supplement of paper PMC10307832:
# Key:
# Test in all cases: relative viability (nuclei count vs DMSO), 5 days (fraction); higher = more cells survive
# 201T = system: 201T
# Outline: (§1)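 Values are medians from duplicate plates. Each reflects relative viability, defined as the nuclei count of treated wells over that of vehicle wells. Lung cancer cell lines in 1536-well plates were pin-tool dosed one day after seeding with one drug alone or with a fixed anchor-drug dose plus five library-drug doses (not always all listed) in √10 steps, then fixed, stained and imaged at 4× after 5 days.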
# COR-L 105 = system: COR-L 105
# Outline: as §1
# COR-L23 = system: COR-L23
# Outline: as §1
# EMC-BAC-2 = system: EMC-BAC-2
# Outline: as §1
# HCC-15 = system: HCC-15
# Outline: as §1
# HCC-366 = system: HCC-366
# Outline: as §1
# LC-2-ad = system: LC-2-ad
# Outline: as §1
# NCI-H1437 = system: NCI-H1437
# Outline: as §1
# NCI-H1755 = system: NCI-H1755
# Outline: as §1
# NCI-H1792 = system: NCI-H1792
# Outline: as §1
# NCI-H1915 = system: NCI-H1915
# Outline: as §1
# NCI-H2009 = system: NCI-H2009
# Outline: as §1
# NCI-H2023 = system: NCI-H2023
# Outline: as §1
# NCI-H2347 = system: NCI-H2347
# Outline: as §1
# NCI-H23 = system: NCI-H23
# Outline: as §1
# NCI-H358 = system: NCI-H358
# Outline: as §1
# NCI-H650 = system: NCI-H650
# Outline: as §1
# PC-14 = system: PC-14
# Outline: as §1
# SK-MES-1 = system: SK-MES-1
# Outline: as §1
structure (smiles),measurement,setting,value
CCNC(=O)c1noc(-c2cc(C(C)C)c(O)cc2O)c1-c1ccc(CN2CCOCC2)cc1 [Luminespib] + C[C@@H](Oc1cc(-c2cnn(C3CCNCC3)c2)cnc1N)c1c(Cl)ccc(F)c1Cl [Crizotinib] (partner 1 µM),relative viability,201T; first compound 0.002 µM,0.995
same,relative viability,201T; first compound 0.006325 µM,0.981
same,relative viability,201T; first compound 0.02 µM,0.968
same,relative viability,201T; first compound 0.06325 µM,1.03
same,relative viability,201T; first compound 0.2 µM,1.03
same,relative viability,COR-L 105; first compound 0.002 µM,0.996
same,relative viability,COR-L 105; first compound 0.006325 µM,0.897
same,relative viability,COR-L 105; first compound 0.02 µM,0.976
same,relative viability,COR-L 105; first compound 0.06325 µM,0.165
same,relative viability,COR-L 105; first compound 0.2 µM,0.224
same,relative viability,COR-L23; first compound 0.002 µM,0.806
same,relative viability,COR-L23; first compound 0.006325 µM,0.629
same,relative viability,COR-L23; first compound 0.02 µM,0.81
same,relative viability,COR-L23; first compound 0.06325 µM,0.0713
same,relative viability,COR-L23; first compound 0.2 µM,0.0608
same,relative viability,EMC-BAC-2; first compound 0.002 µM,0.844
same,relative viability,EMC-BAC-2; first compound 0.006325 µM,0.772
same,relative viability,EMC-BAC-2; first compound 0.02 µM,0.584
same,relative viability,EMC-BAC-2; first compound 0.06325 µM,0.729
same,relative viability,EMC-BAC-2; first compound 0.2 µM,0.759
same,relative viability,HCC-15; first compound 0.002 µM,0.836
same,relative viability,HCC-15; first compound 0.006325 µM,0.863
same,relative viability,HCC-15; first compound 0.02 µM,0.901
same,relative viability,HCC-15; first compound 0.06325 µM,0.473
same,relative viability,HCC-15; first compound 0.2 µM,0.412
same,relative viability,HCC-366; first compound 0.002 µM,0.695
same,relative viability,HCC-366; first compound 0.006325 µM,0.659
same,relative viability,HCC-366; first compound 0.02 µM,0.549
same,relative viability,HCC-366; first compound 0.06325 µM,0.0174
same,relative viability,HCC-366; first compound 0.2 µM,0.0135
same,relative viability,LC-2-ad; first compound 0.002 µM,0.48
same,relative viability,LC-2-ad; first compound 0.006325 µM,0.482
same,relative viability,LC-2-ad; first compound 0.06325 µM,0.289
same,relative viability,LC-2-ad; first compound 0.2 µM,0.262
same,relative viability,NCI-H1437; first compound 0.002 µM,0.92
same,relative viability,NCI-H1437; first compound 0.006325 µM,0.833
same,relative viability,NCI-H1437; first compound 0.02 µM,1.05
same,relative viability,NCI-H1437; first compound 0.06325 µM,0.83
same,relative viability,NCI-H1437; first compound 0.2 µM,0.478
same,relative viability,NCI-H1755; first compound 0.002 µM,0.878
same,relative viability,NCI-H1755; first compound 0.006325 µM,0.882
same,relative viability,NCI-H1755; first compound 0.02 µM,0.938
same,relative viability,NCI-H1755; first compound 0.06325 µM,0.756
same,relative viability,NCI-H1755; first compound 0.2 µM,0.315
same,relative viability,NCI-H1792; first compound 0.002 µM,0.981
same,relative viability,NCI-H1792; first compound 0.006325 µM,0.906
same,relative viability,NCI-H1792; first compound 0.02 µM,0.955
same,relative viability,NCI-H1792; first compound 0.06325 µM,0.435
same,relative viability,NCI-H1792; first compound 0.2 µM,0.119
same,relative viability,NCI-H1915; first compound 0.002 µM,0.952
same,relative viability,NCI-H1915; first compound 0.006325 µM,0.897
same,relative viability,NCI-H1915; first compound 0.02 µM,0.958
same,relative viability,NCI-H1915; first compound 0.06325 µM,0.904
same,relative viability,NCI-H1915; first compound 0.2 µM,0.851
same,relative viability,NCI-H2009; first compound 0.002 µM,1.14
same,relative viability,NCI-H2009; first compound 0.006325 µM,0.918
same,relative viability,NCI-H2009; first compound 0.02 µM,1.04
same,relative viability,NCI-H2009; first compound 0.06325 µM,0.0632
same,relative viability,NCI-H2009; first compound 0.2 µM,0.0663
same,relative viability,NCI-H2023; first compound 0.002 µM,0.772
same,relative viability,NCI-H2023; first compound 0.006325 µM,0.586
same,relative viability,NCI-H2023; first compound 0.02 µM,0.569
same,relative viability,NCI-H2023; first compound 0.06325 µM,0.0759
same,relative viability,NCI-H2023; first compound 0.2 µM,0.0557
same,relative viability,NCI-H2347; first compound 0.002 µM,0.701
same,relative viability,NCI-H2347; first compound 0.02 µM,0.625
same,relative viability,NCI-H2347; first compound 0.06325 µM,0.315
same,relative viability,NCI-H2347; first compound 0.2 µM,0.311
same,relative viability,NCI-H23; first compound 0.002 µM,0.56
same,relative viability,NCI-H23; first compound 0.006325 µM,0.538
same,relative viability,NCI-H23; first compound 0.02 µM,0.445
same,relative viability,NCI-H23; first compound 0.06325 µM,0.119
same,relative viability,NCI-H23; first compound 0.2 µM,0.123
same,relative viability,NCI-H358; first compound 0.002 µM,0.699
same,relative viability,NCI-H358; first compound 0.006325 µM,0.647
same,relative viability,NCI-H358; first compound 0.02 µM,0.608
same,relative viability,NCI-H358; first compound 0.06325 µM,0.0797
same,relative viability,NCI-H358; first compound 0.2 µM,0.0988
same,relative viability,NCI-H650; first compound 0.002 µM,0.887
same,relative viability,NCI-H650; first compound 0.006325 µM,0.745
same,relative viability,NCI-H650; first compound 0.02 µM,0.487
same,relative viability,NCI-H650; first compound 0.06325 µM,0.0913
same,relative viability,NCI-H650; first compound 0.2 µM,0.102
same,relative viability,PC-14; first compound 0.002 µM,0.973
same,relative viability,PC-14; first compound 0.006325 µM,0.845
same,relative viability,PC-14; first compound 0.02 µM,1.12
same,relative viability,PC-14; first compound 0.06325 µM,0.171
same,relative viability,PC-14; first compound 0.2 µM,0.102
same,relative viability,SK-MES-1; first compound 0.002 µM,0.984
same,relative viability,SK-MES-1; first compound 0.006325 µM,1.03
same,relative viability,SK-MES-1; first compound 0.02 µM,1.08
same,relative viability,SK-MES-1; first compound 0.06325 µM,0.758
same,relative viability,SK-MES-1; first compound 0.2 µM,0.147
